{"source": "patent US20110077294A1", "about": "“R-(-) / S-(+)-7-[3-N SUBSTITUTED AMINO-2 HYDROXYPROPOXY] FLAVONES” (priority 2006, published 2011)", "assay_type_in_all_cases": "in vivo", "key": {"[1]": {"test_system": "C57BL/KsBom-db/db mice", "test": "Blood glucose profile of db/db mice during daily treatment (antihyperglycemic activity)", "protocol": "(§1) C57BL/KsBom-db/db mice (12-18 weeks old), weighing around 35+g bred in the animal house of CDRI, Lucknow, were used in the present experiments. The mice were housed in groups of 3 to 5 (same sex) in a room controlled for temperature (23±2.0 ° C.) and 12/12 hours light/dark cycle (lights on at 6.00 am). Body weight of each animal was measured daily from day 1 to day 10 of the experiment. All animals had free access to fresh water and normal pellet diet except on the day of the postprandial protocol (day 6) and during the overnight fast before the OGTT on day 10. The animals always had access to water during experimental periods. Blood glucose was checked every morning up till day 10. On day 10 an oral glucose tolerance test (OGTT) was performed after an overnight fasting. Blood glucose was measured at −30.0 min and test compounds were administered. The blood glucose was again measured at 0 min just post treatment and at this juncture glucose solution was given at a dose of 3 gm/kg to all the groups including the vehicle treated group. The blood glucose levels were checked at 30 min, 60 min, 90 min and 120 min post glucose administration. The data was analyzed for its significance on Prism software."}, "[2]": {"test_system": "C57BL/KsBom-db/db mice", "test": "Oral glucose tolerance test (OGTT) on day 10 in db/db mice", "conditions": "25 mg/kg", "protocol": "as §1"}, "[3]": {"test_system": "C57BL/KsBom-db/db mice", "test": "Serum lipid profile of treated db/db mice (antidyslipidemic activity)", "conditions": "db/db mice, 25 mg/kg"}, "[4]": {"test_system": "C57BL/KsBom-db/db mice", "test": "Serum lipid profile of treated db/db mice (antidyslipidemic activity)", "conditions": "25 mg/kg", "protocol": "as §1"}}, "data": [{"molecule": "CC(C)NC[C@H](O)COc1ccc2c(=O)cc(-c3cc(O)cc(O)c3)oc2c1", "note": "[S-002-857 (S), (S)-(+)-7-(2-Hydroxy-3-isopropylaminopropoxy)-3′,5′-dihydroxyflavone]", "values": [{"measurement": "average blood glucose lowering", "setting": "[1]; 25.0 mg/kg", "value": "around 20%"}, {"measurement": "Blood glucose, day 1 post treatment", "setting": "[1]; 25 mg/kg, day 1", "value": "12.7 ± 2.61", "unit": "mM"}, {"measurement": "Blood glucose % change compared to control, day 1", "setting": "[1]; 25 mg/kg, day 1, vs sham", "value": "−1.60", "unit": "%"}, {"measurement": "Blood glucose, day 2 post treatment", "setting": "[1]; 25 mg/kg, day 2", "value": "12.3 ± 2.40", "unit": "mM"}, {"measurement": "Blood glucose % change compared to control, day 2", "setting": "[1]; 25 mg/kg, day 2, vs sham", "value": "−0.80", "unit": "%"}, {"measurement": "Blood glucose, day 3 post treatment", "setting": "[1]; 25 mg/kg, day 3", "value": "11.5 ± 1.80", "unit": "mM"}, {"measurement": "Blood glucose % change compared to control, day 3", "setting": "[1]; 25 mg/kg, day 3, vs sham", "value": "−8.13", "unit": "%"}, {"measurement": "Blood glucose, day 4 post treatment", "setting": "[1]; 25 mg/kg, day 4", "value": "11.3 ± 2.54", "unit": "mM"}, {"measurement": "Blood glucose % change compared to control, day 4", "setting": "[1]; 25 mg/kg, day 4, vs sham", "value": "−12.7", "unit": "%"}, {"measurement": "Blood glucose, day 5 post treatment", "setting": "[1]; 25 mg/kg, day 5", "value": "10.1 ± 2.08", "unit": "mM"}, {"measurement": "Blood glucose % change compared to control, day 5", "setting": "[1]; 25 mg/kg, day 5, vs sham", "value": "−25.3", "unit": "%"}, {"measurement": "Blood glucose, day 6 post treatment", "setting": "[1]; 25 mg/kg, day 6", "value": "9.19 ± 2.25", "unit": "mM"}, {"measurement": "Blood glucose % change compared to control, day 6", "setting": "[1]; 25 mg/kg, day 6, vs sham", "value": "−29.1", "unit": "%"}, {"measurement": "Blood glucose, day 7 post treatment", "setting": "[1]; 25 mg/kg, day 7", "value": "9.41 ± 1.37", "unit": "mM"}, {"measurement": "lowering in blood glucose, day 7", "setting": "[1]; 25.0 mg/kg, day 7, statistically significant", "value": "around 37.4%"}, {"measurement": "Blood glucose % change compared to control, day 7", "setting": "[1]; 25 mg/kg, day 7, vs sham", "value": "−37.4", "unit": "%"}, {"measurement": "Blood glucose, day 8 post treatment", "setting": "[1]; 25 mg/kg, day 8", "value": "9.28 ± 1.02", "unit": "mM"}, {"measurement": "lowering in blood glucose, day 8", "setting": "[1]; 25.0 mg/kg, day 8, statistically significant", "value": "~36.8", "unit": "%"}, {"measurement": "Blood glucose % change compared to control, day 8", "setting": "[1]; 25 mg/kg, day 8, vs sham", "value": "−36.8", "unit": "%"}, {"measurement": "Blood glucose, day 9 post treatment", "setting": "[1]; 25 mg/kg, day 9", "value": "7.56 ± 2.13", "unit": "mM"}, {"measurement": "lowering in blood glucose, day 9", "setting": "[1]; 25.0 mg/kg, day 9, statistically significant", "value": "~43.3", "unit": "%"}, {"measurement": "Blood glucose % change compared to control, day 9", "setting": "[1]; 25 mg/kg, day 9, vs sham", "value": "−43.3", "unit": "%"}, {"measurement": "Blood glucose profile, 0 min post glucose load", "setting": "[2]; OGTT day 10, 0 min", "value": "13.8 ± 2.18", "unit": "mM"}, {"measurement": "Blood glucose % change compared to control, 0 min post glucose load", "setting": "[2]; OGTT day 10, 0 min, vs sham", "value": "−21.1", "unit": "%"}, {"measurement": "Blood glucose profile, 30 min post glucose load", "setting": "[2]; OGTT day 10, 30 min", "value": "25.3 ± 0.58", "unit": "mM"}, {"measurement": "Blood glucose % change compared to control, 30 min post glucose load", "setting": "[2]; OGTT day 10, 30 min, vs sham", "value": "−23.7", "unit": "%"}, {"measurement": "Blood glucose profile, 60 min post glucose load", "setting": "[2]; OGTT day 10, 60 min", "value": "19.8 ± 1.20", "unit": "mM"}, {"measurement": "Blood glucose % change compared to control, 60 min post glucose load", "setting": "[2]; OGTT day 10, 60 min, vs sham", "value": "−26.9", "unit": "%"}, {"measurement": "Blood glucose profile, 90 min post glucose load", "setting": "[2]; OGTT day 10, 90 min", "value": "15.2 ± 0.48", "unit": "mM"}, {"measurement": "Blood glucose % change compared to control, 90 min post glucose load", "setting": "[2]; OGTT day 10, 90 min, vs sham", "value": "−31.5", "unit": "%"}, {"measurement": "Blood glucose profile, 120 min post glucose load", "setting": "[2]; OGTT day 10, 120 min", "value": "11.6 ± 0.58", "unit": "mM"}, {"measurement": "Blood glucose % change compared to control, 120 min post glucose load", "setting": "[2]; OGTT day 10, 120 min, vs sham", "value": "−37.6", "unit": "%"}, {"measurement": "Blood glucose profile, −30 min post glucose load", "setting": "[2]; OGTT day 10, −30 min", "value": "8.76 ± 1.90", "unit": "mM"}, {"measurement": "Blood glucose % change compared to control, −30 min post glucose load", "setting": "[2]; OGTT day 10, −30 min, vs sham", "value": "−32.2", "unit": "%"}, {"measurement": "effect of 10 days treatment on glucose tolerance (overall improvement in OGTT)", "setting": "[2]; vs sham", "value": 27, "unit": "%"}, {"measurement": "elevation in HDL-cholesterol level than control", "setting": "[3]", "value": 17.3, "unit": "%"}, {"measurement": "Serum lipid profile: Cholesterol", "setting": "[4]", "value": "152 ± 7.00", "unit": "mg/dL"}, {"measurement": "Serum lipid profile: HDL-Chol", "setting": "[4]", "value": "65.0 ± 6.03", "unit": "mg/dL"}, {"measurement": "Serum lipid profile: Triglycerides", "setting": "[4]", "value": "124 ± 3.51", "unit": "mg/dL"}, {"measurement": "serum cholesterol, triglycerides (lipid profile) compared to sham treated (in words)", "setting": "[4]", "value": "not statistically significant"}, {"measurement": "Cholesterol % change compared to control", "setting": "[4]; vs sham", "value": "−11.2", "unit": "%"}, {"measurement": "HDL-Chol % change compared to control", "setting": "[4]; vs sham", "value": "+17.3%"}, {"measurement": "Triglycerides % change compared to control", "setting": "[4]; vs sham", "value": "−6.54", "unit": "%"}]}]}
